Measured values as given in patent US12226412B2, “Heteroaryl-ketone fused azadecalin glucocorticoid receptor modulators” (Corcept Therapeutics, Inc., priority 2012, dated 2025).
Where two headings read alike, the source gives them in different places.

Legend:
[1] = tested on: induction of TAT by dexamethasone in HepG2 cells; assay: HepG2 tyrosine aminotransferase (TAT) assay; assay type: cell-based, human
human recombinant GR = biological target: T1, human recombinant GR (Homo sapiens, UniProt P04150); assay: Human glucocorticoid receptor (GR) fluorescence polarisation (FP) binding assay
T1 construct: purchased PanVera P2812
T1 sequence (P04150 1-777): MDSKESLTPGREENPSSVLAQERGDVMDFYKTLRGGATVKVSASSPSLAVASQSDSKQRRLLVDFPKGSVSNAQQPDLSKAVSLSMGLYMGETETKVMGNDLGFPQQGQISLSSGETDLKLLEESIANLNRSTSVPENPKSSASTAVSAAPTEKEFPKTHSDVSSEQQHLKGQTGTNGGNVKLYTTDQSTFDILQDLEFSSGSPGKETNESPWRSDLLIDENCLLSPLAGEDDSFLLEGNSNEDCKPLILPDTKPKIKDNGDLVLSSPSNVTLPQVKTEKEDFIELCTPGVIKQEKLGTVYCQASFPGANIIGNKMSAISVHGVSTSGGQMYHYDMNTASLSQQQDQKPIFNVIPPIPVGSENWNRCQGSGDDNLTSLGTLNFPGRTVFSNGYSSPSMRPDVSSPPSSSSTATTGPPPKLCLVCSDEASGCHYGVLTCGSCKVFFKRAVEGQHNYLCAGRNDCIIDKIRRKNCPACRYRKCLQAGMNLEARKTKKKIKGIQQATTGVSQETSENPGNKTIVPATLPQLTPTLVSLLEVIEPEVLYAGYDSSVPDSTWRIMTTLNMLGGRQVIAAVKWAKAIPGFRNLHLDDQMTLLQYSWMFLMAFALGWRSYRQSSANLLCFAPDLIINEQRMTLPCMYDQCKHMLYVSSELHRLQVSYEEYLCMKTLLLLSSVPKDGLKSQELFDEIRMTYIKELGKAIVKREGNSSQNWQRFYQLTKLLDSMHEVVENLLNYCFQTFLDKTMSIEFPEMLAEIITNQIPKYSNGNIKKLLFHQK
Procedure, shortened: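 Competition fluorescence polarisation: 0.5 nM GS Red labelled glucocorticoid and 1 nM recombinant human GR with 8-point half-log compound series, 1% DMSO, 4 h room temperature, potassium phosphate pH 7.4 buffer with molybdate, EDTA, DTT. Affinity derived from the drop in polarisation, normalised to blank wells.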

[2] = HepG2 cells, challenge of 100 nM dexamethasone, Ki from IC50 by Cheng and Prusoff equation
[3] = human recombinant GR, fluorescence polarisation binding assay, read-out: GR binding

Compound	Ki [1, 2] [nM]	Ki (human recombinant GR; [3]) [nM]	Ki [1] [nM]	Ki (human recombinant GR) [nM]
Cn1cc(S(=O)(=O)N2CCC3=Cc4c(cnn4-c4ccc(F)cc4)C[C@]3(C(=O)c3cscn3)C2)cn1 [Example 11CY, (R)-(1-(4-fluorophenyl)-6-((1-methyl-1H-pyrazol-4-yl)sulfonyl)-4,4a,5,6,7,8-hexahydro-1H-pyrazolo[3,4-g]isoquinolin-4a-yl)(thiazol-4-yl)methanone]	20 to 100	0.5 to 1		
Cc1cnc(C(=O)[C@]23Cc4cnn(-c5ccc(F)cc5)c4C=C2CCN(S(=O)(=O)c2ccnn2C)C3)s1 [Example 12V, (R)-(1-(4-fluorophenyl)-6-((1-methyl-1H-pyrazol-5-yl)sulfonyl)-4,4a,5,6,7,8-hexahydro-1H-pyrazolo[3,4-g]isoquinolin-4a-yl)(5-methylthiazol-2-yl)methanone]	20 to 100	0.5 to 1		
Cc1cnc(C(=O)[C@]23Cc4cnn(-c5ccc(F)cc5)c4C=C2CCN(S(=O)(=O)c2cccc(C(F)(F)F)c2)C3)s1 [Example 12L, (R)-(1-(4-fluorophenyl)-6-((3-(trifluoromethyl)phenyl)sulfonyl)-4,4a,5,6,7,8-hexahydro-1H-pyrazolo[3,4-g]isoquinolin-4a-yl)(5-methylthiazol-2-yl)methanone]	< 20	< 0.5		
COc1ccc(S(=O)(=O)N2CCC3=Cc4c(cnn4-c4ccc(F)cc4)C[C@]3(C(=O)c3ccccn3)C2)cc1F [Example 11D, (R)-(6-((3-fluoro-4-methoxyphenyl)sulfonyl)-1-(4-fluorophenyl)-4,4a,5,6,7,8-hexahydro-1H-pyrazolo[3,4-g]isoquinolin-4a-yl)(pyridin-2-yl)methanone]	< 20	< 0.5		
CN(C)c1ccc(S(=O)(=O)N2CCC3=Cc4c(cnn4-c4ccc(F)cc4)C[C@]3(C(=O)c3ccccn3)C2)cn1 [Example 16, (R)-(6-((6-(dimethylamino)pyridin-3-yl)sulfonyl)-1-(4-fluorophenyl)-4,4a,5,6,7,8-hexahydro-1H-pyrazolo[3,4-g]isoquinolin-4a-yl)(pyridin-2-yl)methanone]	20 to 100	< 0.5		
O=C(c1nccs1)[C@]12Cc3cnn(-c4ccc(F)cc4)c3C=C1CCN(S(=O)(=O)c1cccc(C(F)(F)F)c1)C2 [Example 12, (R)-(1-(4-fluorophenyl)-6-((3-(trifluoromethyl)phenyl)sulfonyl)-4,4a,5,6,7,8-hexahydro-1H-pyrazolo[3,4-g]isoquinolin-4a-yl)(thiazol-2-yl)methanone]	< 20	< 0.5		
O=C(c1ccccn1)[C@]12Cc3cnn(-c4ccc(F)c(F)c4)c3C=C1CCN(S(=O)(=O)c1ccc(Cl)c(Cl)c1)C2 [Example 15C, (R)-(6-((3,4-dichlorophenyl)sulfonyl)-1-(3,4-difluorophenyl)-4,4a,5,6,7,8-hexahydro-1H-pyrazolo[3,4-g]isoquinolin-4a-yl)(pyridin-2-yl)methanone]	20 to 100	< 0.5		
Cc1ccc(S(=O)(=O)N2CCC3=Cc4c(cnn4-c4ccc(F)cc4)C[C@]3(C(=O)c3nccs3)C2)cc1F [Example 12C, (R)-(6-((3-fluoro-4-methylphenyl)sulfonyl)-1-(4-fluorophenyl)-4,4a,5,6,7,8-hexahydro-1H-pyrazolo[3,4-g]isoquinolin-4a-yl)(thiazol-2-yl)methanone]	20 to 100	< 0.5		
O=C(c1nccs1)[C@]12Cc3cnn(-c4ccc(F)cc4)c3C=C1CCN(S(=O)(=O)c1cncc(N3CCCC3)c1)C2 [Example 7A, (R)-(1-(4-fluorophenyl)-6-((5-(pyrrolidin-1-yl)pyridin-3-yl)sulfonyl)-4,4a,5,6,7,8-hexahydro-1H-pyrazolo[3,4-g]isoquinolin-4a-yl)(thiazol-2-yl)methanone]	20 to 100	< 0.5		
O=C(c1ccccn1)[C@]12Cc3cnn(-c4ccc(F)cc4)c3C=C1CCN(S(=O)(=O)c1ccccc1)C2 [Example 2K, (R)-(1-(4-fluorophenyl)-6-(phenylsulfonyl)-4,4a,5,6,7,8-hexahydro-1H-pyrazolo [3,4-g]isoquinolin-4a-yl)(pyridin-2-yl)methanone]	< 20	< 0.5		
O=C(c1ccccn1)[C@]12Cc3cnn(-c4ccc(F)cc4)c3C=C1CCN(S(=O)(=O)c1ccc(C(F)(F)F)cc1)C2 [Example 1, (R)-(1-(4-fluorophenyl)-6-((4-(trifluoromethyl)phenyl)sulfonyl)-4,4a,5,6,7,8-hexahydro-1H-pyrazolo[3,4-g]isoquinolin-4a-yl)(pyridin-2-yl)methanone]			< 20	< 0.5
CCn1cc(S(=O)(=O)N2CCC3=Cc4c(cnn4-c4ccc(F)cc4)C[C@]3(C(=O)c3cc(C)ccn3)C2)cn1 [Example 11AH, (R)-(6-((1-ethyl-1H-pyrazol-4-yl)sulfonyl)-1-(4-fluorophenyl)-4,4a,5,6,7,8-hexahydro-1H-pyrazolo[3,4-g]isoquinolin-4a-yl)(4-methylpyridin-2-yl)methanone]	< 20	< 0.5		
Cc1ccnc(C(=O)[C@]23Cc4cnn(-c5ccc(F)cc5)c4C=C2CCN(S(=O)(=O)c2cc(C(F)(F)F)ccn2)C3)c1 [Example 11BC, (R)-(1-(4-fluorophenyl)-6-((4-(trifluoromethyl)pyridin-2-yl)sulfonyl)-4,4a,5,6,7,8-hexahydro-1H-pyrazolo[3,4-g]isoquinolin-4a-yl)(4-methylpyridin-2-yl)methanone]	< 20	< 0.5		
CCc1ccnc(C(=O)[C@]23Cc4cnn(-c5ccc(F)cc5)c4C=C2CCN(S(=O)(=O)c2cc(F)c(F)c(F)c2)C3)c1 [Example 1L, (R)-(4-ethylpyridin-2-yl)(1-(4-fluorophenyl)-6-((3,4,5-trifluorophenyl)sulfonyl)-4,4a,5,6,7,8-hexahydro-1H-pyrazolo[3,4-g]isoquinolin-4a-yl)methanone]	< 20	< 0.5		
O=C(c1ccccn1)[C@]12Cc3cnn(-c4ccc(F)cc4)c3C=C1CCN(S(=O)(=O)c1ccc(N3CCCC3)nc1)C2 [Example 8, (R)-(1-(4-fluorophenyl)-6-((6-(pyrrolidin-1-yl)pyridin-3-yl)sulfonyl)-4,4a,5,6,7,8-hexahydro-1H-pyrazolo[3,4-g]isoquinolin-4a-yl)(pyridin-2-yl)methanone]	≥ 100	< 0.5		
O=C(c1ccccn1)[C@]12Cc3cnn(-c4ccc(F)cc4)c3C=C1CCN(S(=O)(=O)c1ccc(F)cc1)C2 [Example 2, (R)-(1-(4-fluorophenyl)-6-((4-fluorophenyl)sulfonyl)-4,4a,5,6,7,8-hexahydro-1H-pyrazolo[3,4-g]isoquinolin-4a-yl)(pyridin-2-yl)methanone]			< 20	< 0.5
Cn1ncnc1C(=O)[C@]12Cc3cnn(-c4ccc(F)cc4)c3C=C1CCN(S(=O)(=O)c1ccc(C(F)(F)F)cc1)C2 [Example 5D, (R)-(1-(4-fluorophenyl)-6-((4-(trifluoromethyl)phenyl)sulfonyl)-4,4a,5,6,7,8-hexahydro-1H-pyrazolo[3,4-g]isoquinolin-4a-yl)(1-methyl-1H-1,2,4-triazol-5-yl)methanone]	≥ 100	< 0.5		
O=C(c1ccccn1)[C@]12Cc3cnn(-c4ccc(F)cc4)c3C=C1CCN(S(=O)(=O)c1ccc(F)c(F)c1)C2 [Example 11P, (R)-(6-((3,4-difluorophenyl)sulfonyl)-1-(4-fluorophenyl)-4,4a,5,6,7,8-hexahydro-1H-pyrazolo[3,4-g]isoquinolin-4a-yl)(pyridin-2-yl)methanone]			< 20	< 0.5
